The numbers were not newly measured in patent US20110195946A1, “HIGH SOLID D[…]” (priority 2008, published 2011), which cites them from elsewhere.

For series [1] the following is noted: acute oral mammalian toxicity.
The conditions of series [2]: acute inhalation toxicity.

The LD50 is the dose at which mortality reaches 50%. As for `N#Cc1c(-c2ccc(Cl)cc2)[nH]c(C(F)(F)F)c1Br` [Tralopyril, 4-bromo-2-(4-chlorophenyl)-5-(trifluoromethyl)-1H-pyrrole-3-carbonitrile], the LD50 in series [1] is 28.7 mg/kg.
For the compound `[O-][n+]1ccccc1[S][Zn][S]c1cccc[n+]1[O-]` [zinc pyrithione, bis(2-pyridylthio)zinc 1,1′ dioxide], the “LC50 (4 h)” value in series [2] is given as 1.03 mg/L.
